Experimental findings from publication PMC7749613 (Journal of Cachexia, Sarcopenia and Muscle, 2020) are described below.

The target of data set [1] is T1, OCT2 (Homo sapiens, UniProt O15244).
T1 construct: host or cells: HEK293
T1 sequence (O15244 1-555): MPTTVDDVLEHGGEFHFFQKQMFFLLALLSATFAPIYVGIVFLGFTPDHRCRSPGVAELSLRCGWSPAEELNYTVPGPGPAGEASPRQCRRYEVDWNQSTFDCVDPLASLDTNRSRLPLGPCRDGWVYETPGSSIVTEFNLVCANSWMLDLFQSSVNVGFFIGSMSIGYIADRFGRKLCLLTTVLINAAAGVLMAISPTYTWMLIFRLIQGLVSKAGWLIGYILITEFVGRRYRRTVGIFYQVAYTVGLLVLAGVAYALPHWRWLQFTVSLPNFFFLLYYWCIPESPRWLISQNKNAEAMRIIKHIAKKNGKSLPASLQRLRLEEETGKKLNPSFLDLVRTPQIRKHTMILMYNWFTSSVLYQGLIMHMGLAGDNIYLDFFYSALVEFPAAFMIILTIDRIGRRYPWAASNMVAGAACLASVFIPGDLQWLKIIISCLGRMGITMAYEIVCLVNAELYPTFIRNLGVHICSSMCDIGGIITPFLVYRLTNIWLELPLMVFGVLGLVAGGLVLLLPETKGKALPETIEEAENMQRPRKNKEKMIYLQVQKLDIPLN
Nature of the data set: Inhibition of prototypical substrate (MPP+) uptake by TCMCB07 in HEK293/OCT2 cells. It is filed as in vitro ADME.
Protocol: (§2) Cells were then washed three times × 1.0 mL each with pre‐warmed Hank's Balanced Salt Solution (HBSS) buffer. A 0.5 mL aliquot of uptake buffer [HBSS plus 10 mM 4‐(2‐hydroxyethyl)‐1‐piperazineethanesulfonic acid (HEPES), pH 7.4], containing the radiolabelled prototypical substrate and mannitol, was then incubated for various times up to 60 min to determine the optimal incubation time for subsequent experiments (i.e. time of sampling during linear uptake conditions). At the designated times, 1.0 mL of ice‐cold HBSS buffer was added to stop uptake after which the cells were rinsed three times with 1.0 mL with ice‐cold HBSS. Hyamine hydroxide (0.33 mL) was then added to each well to lyse the cells. The cells were transferred into a scintillation vial and mixed with 6.0 mL of cytosine scintillation cocktail. Radioactivity of the solubilized cells was determined with a dual‐channel liquid scintillation counter (Beckman LS 6000; Beckman Coulter Inc., Fullerton, CA) and the protein quantified by a bicinchoninic acid protein assay kit (Pierce Biotechnology; Rockford, IL).

In data set [2] the target is T2, OATP1A2 (Homo sapiens, UniProt P46721).
T2 sequence (P46721 1-670): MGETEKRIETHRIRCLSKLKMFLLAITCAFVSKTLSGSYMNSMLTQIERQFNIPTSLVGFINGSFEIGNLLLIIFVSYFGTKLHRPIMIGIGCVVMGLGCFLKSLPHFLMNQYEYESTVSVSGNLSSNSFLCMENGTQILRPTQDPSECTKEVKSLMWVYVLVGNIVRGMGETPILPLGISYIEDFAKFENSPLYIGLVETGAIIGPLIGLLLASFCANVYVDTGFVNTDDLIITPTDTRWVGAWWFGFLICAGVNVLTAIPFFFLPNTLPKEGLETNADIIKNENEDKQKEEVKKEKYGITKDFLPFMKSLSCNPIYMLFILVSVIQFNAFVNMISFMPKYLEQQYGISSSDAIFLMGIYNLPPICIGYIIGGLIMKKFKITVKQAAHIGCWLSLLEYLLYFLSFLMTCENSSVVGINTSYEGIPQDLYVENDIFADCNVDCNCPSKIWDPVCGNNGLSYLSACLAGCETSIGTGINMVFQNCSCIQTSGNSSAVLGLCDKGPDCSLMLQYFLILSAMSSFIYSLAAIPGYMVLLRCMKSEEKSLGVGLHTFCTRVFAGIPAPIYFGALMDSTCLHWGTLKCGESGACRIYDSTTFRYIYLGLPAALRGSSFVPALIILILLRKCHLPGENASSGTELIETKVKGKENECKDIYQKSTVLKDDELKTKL
Nature of the data set: Cellular uptake in HEK293/OATP1A2‐transfected versus mock cells.
Protocol: Mock and transfected cells (250 000 cells/well) were seeded onto BioCoat poly‐D‐lysine 24 well plates (Corning Inc.) and cultured for 2 days as described previously for the other OATPs. […] Cells were incubated for various times over 10 min for the uptake studies. Radioactivity and protein measurements were then performed as described previously.
Cellular uptake and transepithelial transport were calculated as described previously by our laboratory. ^16 , ^17 , ^18 , ^19 [^3H]mannitol or [^14C]mannitol was used to correct the uptake of [^14C]substrate or [^3H]substrate, respectively, due to filter binding and extracellular content, as well as the transepithelial transport of substrate due to paracellular flux.
Uptake kinetics in mock cells was evaluated by a linear term: (3) v=Slope·C+Yint, where Slope is the non‐saturable rate constant and Yint is the y‐intercept of the line.

For data set [3], the target named is T3, OAT1 (Homo sapiens, UniProt Q4U2R8).
T3 construct: host or cells: HEK293
T3 sequence (Q4U2R8 1-563): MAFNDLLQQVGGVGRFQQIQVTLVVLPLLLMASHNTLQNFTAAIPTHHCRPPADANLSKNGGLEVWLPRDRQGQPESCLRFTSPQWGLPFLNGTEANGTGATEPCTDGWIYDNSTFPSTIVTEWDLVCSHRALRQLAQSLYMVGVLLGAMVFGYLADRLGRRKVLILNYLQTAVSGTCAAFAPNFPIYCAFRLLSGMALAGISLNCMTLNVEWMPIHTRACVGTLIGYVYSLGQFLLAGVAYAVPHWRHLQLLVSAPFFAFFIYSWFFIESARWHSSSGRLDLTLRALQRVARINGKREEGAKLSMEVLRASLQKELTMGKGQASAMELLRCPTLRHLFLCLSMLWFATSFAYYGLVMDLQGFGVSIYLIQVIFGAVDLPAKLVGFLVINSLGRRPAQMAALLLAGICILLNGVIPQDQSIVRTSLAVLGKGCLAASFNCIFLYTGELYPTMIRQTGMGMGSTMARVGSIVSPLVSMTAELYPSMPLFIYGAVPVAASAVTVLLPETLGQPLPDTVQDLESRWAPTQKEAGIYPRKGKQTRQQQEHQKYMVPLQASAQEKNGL
In words: Inhibition of prototypical substrate (PAH) uptake by TCMCB07 in HEK293/OAT1 cells. It is filed as in vitro ADME. To be noted: substrate 1.0 μM [14C]PAH, 5.0 min, up to 1000 μM TCMCB07.
Protocol: as §2

Data set [4] has as its target T2, OATP1A2. Nature of the data set: Inhibition of prototypical substrate (E3S) uptake by TCMCB07 in HEK293/OATP1A2 cells. It is filed as in vitro ADME. More on the design: host or cells: HEK293.
Protocol: as §2
Mock and transfected cells (250 000 cells/well) were seeded onto BioCoat poly‐D‐lysine 24 well plates (Corning Inc.) and cultured for 2 days as described previously for the other OATPs. […] Radioactivity and protein measurements were then performed as described previously.
Data set [5] concerns the target T4, MATE1 (Homo sapiens, UniProt Q96FL8).
T4 sequence (Q96FL8 1-570): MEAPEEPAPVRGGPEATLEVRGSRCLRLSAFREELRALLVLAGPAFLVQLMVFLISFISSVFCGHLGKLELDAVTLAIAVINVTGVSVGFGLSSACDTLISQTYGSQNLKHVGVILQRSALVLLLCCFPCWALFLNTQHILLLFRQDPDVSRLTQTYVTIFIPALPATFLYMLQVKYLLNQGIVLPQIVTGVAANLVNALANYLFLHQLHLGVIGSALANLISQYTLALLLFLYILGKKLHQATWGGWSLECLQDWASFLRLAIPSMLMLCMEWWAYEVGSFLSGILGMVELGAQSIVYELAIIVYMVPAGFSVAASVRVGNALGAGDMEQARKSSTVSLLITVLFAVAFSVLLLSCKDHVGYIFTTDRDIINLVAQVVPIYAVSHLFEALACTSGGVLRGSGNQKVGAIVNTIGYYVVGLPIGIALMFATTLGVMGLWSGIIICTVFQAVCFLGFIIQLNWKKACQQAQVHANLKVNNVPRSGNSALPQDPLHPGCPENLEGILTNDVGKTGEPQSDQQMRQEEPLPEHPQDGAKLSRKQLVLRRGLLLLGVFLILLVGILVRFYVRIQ
It is filed as in vitro ADME. On the procedure: (§1) However, for these studies, a different incubation buffer was used (145 mM NaCl, 3 mM KCl, 1 mM CaCl2, 0.5 mM MgCl2, 5 mM glucose, and 5 mM HEPES, pH 7.4). ^13 Moreover, intracellular acidification was achieved by preincubating the cells in buffer containing 30 mM ammonium chloride for 20 min at 37°C. […] Radioactivity and protein measurements were performed as described previously.

Data set [6] concerns the target MATE2‐K (Homo sapiens, UniProt Q86VL8). It is filed as in vitro ADME. The procedure: as §1

Each structure is given as a SMILES string. Bridge positions count the residues as written; N and C are the ends. Square brackets hold non-standard residues; d marks the D form. Peptide text beside a SMILES is read from it. d2Nal = N[C@H](Cc1ccc2ccccc2c1)C(=O)O; Nle = CCCC[C@H](N)C(=O)O

Sequence of MATE2‐K (Q86VL8 1-566 isoform Q86VL8-3): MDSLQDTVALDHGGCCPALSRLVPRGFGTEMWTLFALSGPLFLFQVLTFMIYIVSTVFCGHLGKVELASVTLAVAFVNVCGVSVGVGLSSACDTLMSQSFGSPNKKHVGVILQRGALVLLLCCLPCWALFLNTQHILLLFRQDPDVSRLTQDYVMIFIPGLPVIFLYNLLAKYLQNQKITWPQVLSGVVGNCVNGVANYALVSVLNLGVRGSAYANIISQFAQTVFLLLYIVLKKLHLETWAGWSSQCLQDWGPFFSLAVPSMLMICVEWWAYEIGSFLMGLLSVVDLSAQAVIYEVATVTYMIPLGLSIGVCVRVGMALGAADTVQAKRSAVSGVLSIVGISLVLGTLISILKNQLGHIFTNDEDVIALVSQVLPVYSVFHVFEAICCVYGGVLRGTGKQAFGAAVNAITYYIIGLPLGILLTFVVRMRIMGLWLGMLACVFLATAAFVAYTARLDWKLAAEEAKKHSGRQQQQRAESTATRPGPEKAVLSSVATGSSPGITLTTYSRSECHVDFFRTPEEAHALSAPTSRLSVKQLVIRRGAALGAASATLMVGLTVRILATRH

The term IC50 denotes the point on the concentration scale where inhibition reaches its midpoint. A higher IC50 goes with weaker potency in that assay. `CCCC[C@H](NC(C)=O)C(=O)N[C@H]1CC(=O)NCCCC[C@@H](C(=O)N[C@@H](C(=O)N2CCC[C@@H]2C(N)=O)C(C)C)NC(=O)[C@H](Cc2c[nH]c3ccccc23)NC(=O)[C@H](CCCN=C(N)N)NC(=O)[C@@H](Cc2ccc3ccccc3c2)NC(=O)[C@@H]2CCCN2C1=O` [TCMCB07, Ac‐Nle‐c[Asp‐Pro‐dNal2′‐Arg‐Trp‐Lys]‐dVal‐dPro‐NH2] (Ac-[Nle]DP[d2Nal]RWK[dV][dP]-NH2; lactam 2-7): the IC50 was 1170 µM in data set [1]; “could not be determined” in data set [3]; 24 ± 2.8 µM in data set [4]; 8.7 ± 0.4 µM in data set [5]; 20.7 ± 2.1 µM in data set [6]. Also, the “saturable uptake component (V max/K m) as share of total uptake (V max/K m + K d)” value in data set [2] (OATP1A2‐transfected cells, at low concentrations (<< K m)) was “over 90%”. In addition, in data set [2] (at 5 min), the “uptake of TCMCB07 in OATP1A2 cells as compared with mock cells” value is 3–4 times greater.
